Experimental data reported in US20210177879A1, “VITAMIN D RECEPTOR AGONIST” (Guanghzou University of Chinese Medicine, priority 2018, published 2021).

Columns and labels:
VDR = test: Detection of acting target of monotropein: VDR expression (Western blot, immunohistochemistry); type: in vivo, Balb/c mice
Method: Experimental method: 90 Balb/c mice of 6-8 weeks were purchased from the Experimental Animal Center in Guangzhou University of Chinese Medicine, weighed about 18-22 g, and subjected to adaptive feeding for 10 days. Modeling was divided into three stages. In the first stage, except for the normal group of animals being given saline injection, each of the other animals were intraperitoneally injected with a carcinogen AOM (10 mg/kg), and given free access to 2% DSS water from the next day for 7 days, and then given access to replaced regular drinking water for 14 days. […] The diet, water drinking and body weights of the animals were recorded daily and DAI scores were made, and the animals were killed and harvested at the 10th week. […]
The animals were anesthetized and harvested, and the liver, spleen, thymus and testis were weighed to calculate the organ coefficient; the colon tissue was taken, measured with a ruler for the length, and measured with a vernier caliper for the thickness, and the number and size of tumors and degree of colonic ulceration and adhesion were recorded; respective tissues were cut into small pieces and fixed, and the remaining tissues were frozen and stored; and the fixed tissues were used for HE staining and immunohistochemistry.
(§1) A potential acting target of monotropein for interfering with the colon cancer was detected.

Aktl = test: Detection of acting target of monotropein: Aktl (Western blot); type: in vivo, Balb/c mice; details: colon of AOM/DSS mice
Method: Experimental method: 90 Balb/c mice of 6-8 weeks were purchased from the Experimental Animal Center in Guangzhou University of Chinese Medicine, weighed about 18-22 g, and subjected to adaptive feeding for 10 days. Modeling was divided into three stages. In the first stage, except for the normal group of animals being given saline injection, each of the other animals were intraperitoneally injected with a carcinogen AOM (10 mg/kg), and given free access to 2% DSS water from the next day for 7 days, and then given access to replaced regular drinking water for 14 days. In the second stage, the animals were given free access to 2% DSS water for 10 days, and then given access to replaced regular drinking water for 14 days. In the third stage, the animals were given free access to 2% DSS water for 10 days, and then given access to replaced regular drinking water for 11 days. The normal group was given access to regular drinking water throughout the experiment. The diet, water drinking and body weights of the animals were recorded daily and DAI scores were made, and the animals were killed and harvested at the 10th week. […]
as §1

HT29 transplanted tumor = test: Transplanted tumor of HT29 colon cancer cells in nude mice; type: in vivo; details: 2 mg/kg in combination with 5-fluorouracil at half dose (20 mg/kg), once a day; effect comparable to 5-fluorouracil alone 40 mg/kg
Method: (§2) The HT29 cells were thawed, and cultured in a changed medium after 24 hours. Medium preparation method: 6% serum, 1% of a bispecific antibody+a 1640 basal medium. After grown to confluent, the cells were digested and subcultured to expand the number of cells. When reached the required amount, the cells were digested by trypsin, centrifuged, and resuspended in PBS to prepare a cell suspension of 1×10^8 cells/ml. A part of the cell suspension was added with the monotropein, desacetyl asperulosidic acid, asperuloside, and asperulosidic acid respectively, and the inhibition rate (%) of tumor cell proliferation by each of these different compounds was examined.
(§3) Male adult nude mice, which had the body weights of 20-24 g, were purchased from Guangdong Medical Laboratory Animal Center. After 7 days of adaptive feeding of the animals, except for the blank group, the remaining animals were injected with 0.2 ml of a cell suspension in PBS at ventrodorsal and scapula sites of them, the response conditions of the animals were observed, and the body weights of the animals were determined once a week. After 2 weeks of observation, the animals were grouped into the following groups according to tumor size: a blank group; a model group; a 5-fluorouracil control group (5-Full, 40 mg/kg); monotropein+5-fluorouracil (2 mg/kg monotropein+20 mg/kg 5-fluorouracil), desacetyl asperulosidic acid+5-fluorouracil (2 mg/kg desacetyl asperulosidic acid+20 mg/kg 5-fluorouracil), asperuloside+5-fluorouracil (2 mg/kg asperuloside+20 mg/kg 5-fluorouracil), asperulosidic acid+5-fluorouracil (2 mg/kg asperulosidic acid+20 mg/kg 5-fluorouracil), these groups being labeled as: Mo, As, Aa, Da. Each group included 8 animals; and administration was conducted once a day.
(§4) The status, death conditions, and eating and drinking conditions of the animals were observed daily. The body weights of the animals were determined once a week and the tumor size of the animals was determined every 4 days. The tumor volume of the animals was determined by using a vernier caliper. After 1 month of administration, the animals were sacrificed after blood was sampled from the orbit thereof, and the tumor was separated and weighed.

[1] = test system: SW1990 breast cancer cells; test: In vitro proliferation inhibition of SW1990 breast cancer cells; type: cell-based; details: concentration of 1 uM; compared with blank control group
Method: as §2, with “SW1990” for “HT29”

[2] = test system: transplanted tumor of MB-231 pancreatic cancer cells; test: Transplanted tumor of MB-231 pancreatic cancer cells in nude mice; type: in vivo; details: 2 mg/kg in combination with 5-fluorouracil at half dose (20 mg/kg), once a day; effect comparable to 5-fluorouracil alone 40 mg/kg
Method: as §2, with “SMB-231 pancreatic cancer” for “HT29”
as §3, with “of a SMB-231 pancreatic cancer cell suspension” for “of a cell suspension”
as §4

Compound: O=C(O)C1=CO[C@@H](O[C@@H]2O[C@H](CO)[C@@H](O)[C@H](O)[C@H]2O)[C@H]2[C@@H]1C=C[C@]2(O)CO [monotropein]
- expression of VDR, immunohistochemistry (VDR; colon cancerous sites of AOM/DSS mice): up-regulated the expression of VDR
- expression of intestinal VDR, Western blot (VDR; colon of AOM/DSS mice): mainly promoted the expression of intestinal VDR
- effect on Aktl, Western blot (Aktl): no significant effect
- tumor proliferation in HT29 tumor-bearing mice (HT29 transplanted tumor): significantly inhibit tumor proliferation
- proliferation of SW1990 cells in vitro [1]: significantly inhibit the proliferation
- tumor proliferation in SMB-231 tumor-bearing mice [2]: significantly inhibit tumor proliferation
